Measured values as given in US20260028390A1, “ALPHA1-ANTITRYPSIN FOR USE IN THE TREATMENT OF DISEASES OR DISORDERS OF THE NERVOUS SYSTEM SUCH AS CHRONIC INFLAMMATORY DEMYELINATING POLYNEUROPATHY” (Ageronix SA, priority 2022, published 2026).

How the values were obtained:
HMC3-MHCII^Luc cells = assay: IFNγ-mediated microglial activation, MHCII-driven luciferase activity; type: cell-based, human; details: IFNγ 10 ng/ml; AATs 1, 10 or 25 μM day 0 to day 4
Description: • A) Human microglial cells HMC3-MHCII^Luc cells were plated at day 0, activated with IFNγ at day1 until day 2 and measurement of the luciferase activity and cell viability were done at day 4. • B) Activation was measured by the activity of MHCII-driven luciferase and normalized to cell viability. Luciferase activity for all conditions is represented as fold of the untreated control. A potential effect of the highest concentration of the buffer used for drug presentation (IFNγ, AATs) was precluded. All conditions were performed in triplicates, error bars represent standard deviation (FIGS. 1A and 1B).
(§1) • A) Human microglial HMC3-MHCII^Luc and HMC3MHCII^Luc; Ubi^AAT cells were plated at day 0, presented IFNγ at day 1 until day 2 and measurement of the luciferase activity and cell viability were done at day 4. • B) AATs were applied from day 0 to day 4 on HMC3-MHCII^Luc cells. Activation was measured by the activity of MHCII-driven luciferase and normalized to cell viability. […]
as §1, with “HMC3-MHCII^Luc” for “HMC3-MHCII^Luc and HMC3MHCII^Luc; Ubi^AAT”, “represented as percentage of IFNγ control for all conditions.” for “normalized to cell viability.”

CIDP mice = assay: Sciatic nerve histology, CIDP mouse model; type: in vivo
Description: C57BL/6 mice were received at 8 weeks of age and housed under controlled conditions for the duration of the study. Three groups of 4 animals each were assigned to the following subcutaneous treatments twice daily at 7:00 AM and 7:00 PM for 2 weeks, from 20 to 35 days after the start of disease induction: • Wild type (WT) mice receiving the vehicle, 0.9% NaCl (positive control) • CIDP mice receiving the vehicle, 0.9% NaCl (negative control) • CIDP mice receiving human AAT (AAT), 50 mg/kg per injection
Disease induction consisted in subcutaneous injection of mouse sciatic nerve homogenate in phosphate buffer saline (PBS)+Freund's adjuvant mixture at 10 mL/kg. For each treatment, 3 different body sites injections were performed. Control mice also received three subcutaneous injections of PBS+Freund's adjuvant at the same 3 different body sites.
On the first (Day 20) and last (Day 35) day of treatment, the neuromuscular and performance of animals was tested with a rotarod test, grip test and a sensory test using the Von Frey filament test, as well as sciatic nerve electrophysiology test. After the last treatment at Day 35, these tests were repeated, animals were sacrificed and the left sciatic nerve was sampled for histological evaluation of the number and size of […].

plasma TNFα = assay: Plasma TNFα concentration, CMT1A mouse study (50 mg/kg twice daily); type: in vivo; details: for Plasma TNFα concentration (Mean ± SEM): CMT1A mice
Description: Animals were split in 3 groups (wild-type control (subcutaneous 0.9% NaCl), CMT1A-vehicle (subcutaneous 0.9% NaCl), CMT1A-human alpha-1 antitrypsin (subcutaneous, twice daily, 50 mg/kg per injection)) of 3 mice each (3 weeks old males of 18±2.5 g at the beginning of study) and all went through the following protocol after 7 days of acclimation on site.
Starting from the age of 4 weeks, animals were subjected to blood samplings for the determination of interleukin-6 (IL-6) and tumor necrosing factor alpha (TNFα) levels, as described in FIG. 16.

Microglial (HMC3) cells = assay: IL6 and IL1B gene expression (qPCR) in IFNγ-induced microglia; type: cell-based, human; details: HMC3, IFNγ 10 ng/mL 24 h; AAT 25 μM or peptides 50 μM
Description: Microglial (HMC3) cells were seeded into 96-well plates at a density of approximately 2500 cells/well. Plasma derived AAT (Sigma, 25 μM) or peptide 8, peptide 9 or peptide 14 (Syngene, 50 μM) were added, and microglial activation was induced with interferon gamma (IFNγ) (10 ng/mL) for 24 h with no preincubation. Then, the RNA was extracted (RNAeasy mini kit, Qiagen) and the expression of the Interleukin-6 (IL6) and Interleukin-Ibeta (ILIB) genes were analysed. qPCR was performed with Syber green POWER UP master mix using 10 ng/well of cDNA in all gene expression results.

[1] = CIDP mice, day 35, AAT 50 mg/kg sc twice daily

Question: What does the source list for alpha1-antitrypsin (AAT) protein?
Answer: IFNγ-mediated microglial activation (MHCII-driven luciferase activity) (HMC3-MHCII^Luc cells): decreases; axonal diameter compared to the CIDP+vehicle treated group (CIDP mice; CIDP + AAT, day 35): significant increase; g-ratio compared to the CIDP+vehicle treated group (CIDP mice; CIDP + AAT, day 35): decrease; total number of axons per surface compared to the vehicle treated group (CIDP mice; CIDP + AAT, day 35): Slight but non-significant increase; Sciatic nerve histology, Axonal diameter (Mean ± SEM) (CIDP mice; [1]): 3.82 ± 0.09 μm; Sciatic nerve histology, Axons/100 μm^2 (Mean ± SEM) (CIDP mice; [1]): 26.00 ± 2.10; Sciatic nerve histology, g-ratio (Mean ± SEM) (CIDP mice; [1]): 0.715 ± 0.008; effect on plasma TNFα levels (plasma TNFα; CMT1A + AAT, day 14 and day 29): no effect; Plasma TNFα concentration (Mean ± SEM) (plasma TNFα; Day 1 (baseline)): 2.94 ± 0.17 pg/mL; Plasma TNFα concentration (Mean ± SEM) (plasma TNFα; Day 8): 3.70 ± 0.41 pg/mL; Plasma TNFα concentration (Mean ± SEM) (plasma TNFα; Day 14): 5.15 ± 0.393 pg/mL; Plasma TNFα concentration (Mean ± SEM) (plasma TNFα; Day 29): 10.67 ± 0.833 pg/mL; IL1B expression reduced by (Microglial (HMC3) cells): 60-70%; IL6 expression reduced by (Microglial (HMC3) cells): 30-40%
